Reference: ChEMBL document CHEMBL1201862, “PubChem BioAssay data set” (2004)
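Dose response: 5 concentrations. Exposure: 48 h. Format: 96-well plates. Endpoint: linear interpolation; highest concentration if not reached. Abbreviation: GI50, concentration required for 50% inhibition of growth.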 The source made the active and inactive calls. No stated cut-off is given here; in the data, active = GI50 up to about 1.1 µM and inactive = higher.

What was measured:
Experiment in all cases: NCI tumour cell line growth inhibition, 48 h
DLD-1 = test system: DLD-1
HOP-18 = test system: HOP-18
KM-20L2 = test system: KM-20L2
LXFL 529 = test system: LXFL 529
M19-MEL = test system: M19-MEL
RXF 631 = test system: RXF 631
XF498 = test system: XF498

Measured: GI50

COc1ccc(-c2[nH]c3ccccc3c2CCNS(=O)(=O)c2ccc(C)cc2)cc1
inactive: DLD-1 8.09 µM | HOP-18 > 7.4 µM | KM-20L2 > 8.47 µM | LXFL 529 > 10 µM | M19-MEL > 8.39 µM | RXF 631 > 8.49 µM | XF498 > 8.83 µM

CC1CC2C(=O)N(c3ccccc3)C(=O)C2c2[nH]c3ccccc3c21 (centres undefined)
inactive: DLD-1 89.3 µM | LXFL 529 42.5 µM | M19-MEL 41.5 µM | RXF 631 34.3 µM

CCc1ccccc1NC(=O)C(=O)C(C(=O)c1ccc(OC)cc1)c1ccc(OC)cc1 (centres undefined)
inactive: DLD-1 > 100 µM | HOP-18 > 100 µM | KM-20L2 > 100 µM | LXFL 529 > 100 µM | RXF 631 > 100 µM | XF498 > 100 µM

Nc1nc2c(ncn2C2OC(CO)C(O)C2O)c(=O)o1 (centres undefined)
inactive: DLD-1 > 89.1 µM | HOP-18 > 100 µM | KM-20L2 > 55 µM | LXFL 529 > 100 µM | M19-MEL > 100 µM | RXF 631 > 100 µM | XF498 > 100 µM

CN(OC(=O)CC(=O)c1ccccc1)C(=O)Cc1ccccc1
inactive: DLD-1 > 100 µM | KM-20L2 > 100 µM | LXFL 529 > 100 µM | M19-MEL > 100 µM | RXF 631 > 100 µM

COC(=O)c1c(CC#N)cccc1CC#N
inactive: DLD-1 > 100 µM | KM-20L2 > 100 µM | LXFL 529 > 100 µM | M19-MEL > 100 µM | RXF 631 > 100 µM | XF498 > 100 µM

O=C1c2ccccc2C(=O)N1C/C=N/NS(=O)(=O)c1ccc(F)cc1
inactive: DLD-1 > 100 µM | KM-20L2 > 100 µM | LXFL 529 > 100 µM | M19-MEL > 100 µM | RXF 631 > 100 µM | XF498 > 100 µM

Cc1ccc(C)c(NC(=O)CC/C(=N\NC(=O)C(N)=O)C(C)C(=O)c2ccc(O)cc2)c1 (centres undefined)
inactive: DLD-1 > 100 µM | HOP-18 > 100 µM | KM-20L2 > 100 µM | LXFL 529 > 100 µM | M19-MEL > 100 µM | RXF 631 > 100 µM

O=C1c2ccccc2N2OC3(N4CCCC4)CCCC3C12c1ccccc1 (centres undefined)
inactive: DLD-1 > 100 µM | HOP-18 > 100 µM | KM-20L2 > 100 µM | LXFL 529 67.8 µM | M19-MEL > 100 µM | XF498 92.3 µM

C=C(C)CCOC(c1ccccc1)(c1ccccc1)c1ccccc1
inactive: DLD-1 60.4 µM | KM-20L2 23.5 µM | LXFL 529 45.8 µM | M19-MEL 27.9 µM | RXF 631 55.5 µM | XF498 26.1 µM

CCCCCCCCCCCCCC(=O)OCC1OC(n2cc(F)c(=O)[nH]c2=O)C(NC(=O)OCc2ccccc2)C(OC(=O)CCCCCCCCCCCCC)C1O (centres undefined)
inactive: DLD-1 > 100 µM | HOP-18 > 100 µM | KM-20L2 > 100 µM | LXFL 529 > 100 µM | M19-MEL > 100 µM | RXF 631 > 100 µM | XF498 > 100 µM

COc1ccc2c(c1)[n+]([O-])c(C(=O)C/C(=N/NC(=O)C[N+](C)(C)C)C(=O)Nc1cccc(C)c1C)c(C)[n+]2[O-]
inactive: DLD-1 > 100 µM | HOP-18 > 100 µM | KM-20L2 > 100 µM | LXFL 529 > 100 µM | M19-MEL > 100 µM | RXF 631 > 100 µM

CC(=O)OC[C@]1(O)CC[C@@]23CC1C[C@@H]2CCC1C(C)(C)CCC[C@@]13C (some centres undefined)
inactive: DLD-1 15.3 µM | KM-20L2 17.3 µM | LXFL 529 11.2 µM | M19-MEL 16 µM | RXF 631 14.2 µM | XF498 14.1 µM

CCCCCCCCCCCCCCCCCC[N+](C)(C)Cc1ccc(C[N+](C)(C)CCCCCCCCCCCCCCCCCC)cc1
inactive: DLD-1 22.1 µM | HOP-18 13 µM | KM-20L2 31.3 µM | LXFL 529 2.51 µM | M19-MEL 16.9 µM | RXF 631 20.9 µM
